Results from EP4778924A1 (Huons Co., Ltd., priority 2023, dated 2025).
Where a name gives a salt, the structure may show the parent alone.

target: T1, Proton Pump (H^+,K^+-ATPase) (Sus scrofa, UniProt P19156); test: Inhibitory activity on proton pump (H+,K+-ATPase) activity, porcine gastric vesicles, malachite green readout; type: biochemical; conditions: porcine gastric vesicles, pH 6.5, 8 mM KCl, 0.2 mM ATP
T1 construct: gastric vesicles were isolated from porcine stomachs; from tissue; host or cells: porcine stomach (gastric vesicles)
T1 sequence (P19156 2-1034 limits assumed): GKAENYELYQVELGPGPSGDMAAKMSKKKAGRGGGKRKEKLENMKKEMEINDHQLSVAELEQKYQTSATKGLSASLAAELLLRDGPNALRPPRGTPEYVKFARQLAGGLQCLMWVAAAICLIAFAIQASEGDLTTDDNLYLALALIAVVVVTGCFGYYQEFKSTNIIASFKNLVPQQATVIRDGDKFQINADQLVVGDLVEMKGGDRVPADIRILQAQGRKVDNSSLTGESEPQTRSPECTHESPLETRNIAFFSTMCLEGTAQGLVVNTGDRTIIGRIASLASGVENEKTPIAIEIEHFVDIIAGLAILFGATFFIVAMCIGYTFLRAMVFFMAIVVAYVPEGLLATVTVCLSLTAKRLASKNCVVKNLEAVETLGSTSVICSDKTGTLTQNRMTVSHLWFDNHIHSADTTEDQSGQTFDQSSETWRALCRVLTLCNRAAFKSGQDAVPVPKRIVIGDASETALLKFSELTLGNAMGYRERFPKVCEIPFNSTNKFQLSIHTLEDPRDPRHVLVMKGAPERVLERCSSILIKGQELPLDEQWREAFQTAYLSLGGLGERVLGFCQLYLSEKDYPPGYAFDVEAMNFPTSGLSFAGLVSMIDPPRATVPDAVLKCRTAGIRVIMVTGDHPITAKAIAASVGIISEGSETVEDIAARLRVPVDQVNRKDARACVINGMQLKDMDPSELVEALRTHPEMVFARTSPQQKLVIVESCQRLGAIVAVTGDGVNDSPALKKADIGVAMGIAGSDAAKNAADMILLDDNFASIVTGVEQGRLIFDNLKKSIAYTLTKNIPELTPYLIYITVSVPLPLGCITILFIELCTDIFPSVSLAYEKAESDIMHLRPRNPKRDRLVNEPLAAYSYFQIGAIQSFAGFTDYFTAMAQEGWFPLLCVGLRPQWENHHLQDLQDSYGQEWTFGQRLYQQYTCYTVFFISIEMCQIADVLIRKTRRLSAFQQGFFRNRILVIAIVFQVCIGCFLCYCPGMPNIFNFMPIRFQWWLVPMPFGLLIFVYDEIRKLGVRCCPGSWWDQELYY
T1 sequence (P18434 whole entry partner): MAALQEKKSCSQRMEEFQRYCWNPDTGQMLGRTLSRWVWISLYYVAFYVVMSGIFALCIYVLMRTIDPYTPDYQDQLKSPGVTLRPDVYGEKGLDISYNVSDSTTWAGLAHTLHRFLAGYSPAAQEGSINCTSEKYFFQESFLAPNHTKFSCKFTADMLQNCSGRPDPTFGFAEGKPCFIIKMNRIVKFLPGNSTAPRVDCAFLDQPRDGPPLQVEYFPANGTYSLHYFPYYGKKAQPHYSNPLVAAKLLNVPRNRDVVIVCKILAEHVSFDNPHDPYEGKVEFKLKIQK
Method in brief: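 Porcine gastric vesicles (100 ng) preincubated 30 min at 37°C with […] valinomycin and compound (0.1% DMSO final) in 50 mM Tris-HEPES, 5 mM MgCl2, 8 mM KCl, pH 6.5, then 0.2 mM ATP for 20 min at 37°C. Released phosphate measured by malachite green at 620 nm; IC50 via nonlinear regression of % inhibition.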

| SMILES | IC50 [nM] |
| --- | --- |
| CC(=O)O[C@H](C)C(=O)Nc1cc(NCc2c(C)cc(F)cc2C)c2nc(C)c(C)n2c1 [Example 111, (R)-1-((8-((4-fluoro-2,6-dimethylbenzyl)amino)-2,3-dimethylimidazo[1,2-a]pyridin-6-yl)amino)-1-oxopropan-2-yl acetate] | 100 to 500 |
| Cc1cc(F)cc(C)c1CNc1cc(NC(=O)[C@@H]2CCN2)cn2c(C)c(C)nc12 [Example 65, (S)-N-(8-((4-fluoro-2,6-dimethylbenzyl)amino)-2,3-dimethylimidazo[1,2-a]pyridin-6-yl)azetidine-2-carboxamide hydrochloride] | 50 to 100 |
| Cc1cccc(C)c1CNc1cc(NC(=O)N2CC(=O)C2)cn2c(C)c(C)nc12 [Example 69, N-(8-((2,6-dimethylbenzyl)amino)-2,3-dimethylimidazo[1,2-a]pyridin-6-yl)-3-oxoazetidine-1-carboxamide citrate] | < 50 |
| Cc1cccc(C)c1CNc1cc(N2CCC2=O)cn2c(C)c(C)nc12 [Example 28, 1-(8-((2,6-dimethylbenzyl)amino)-2,3-dimethylimidazo[1,2-a]pyridin-6-yl)azetidin-2-one] | > 500 |
| CC(=O)O[C@@H](C)C(=O)Nc1cc(NCc2c(C)cc(F)cc2C)c2nc(C)c(C)n2c1 [Example 112, (S)-1-((8-((4-fluoro-2,6-dimethylbenzyl)amino)-2,3-dimethylimidazo[1,2-a]pyridin-6-yl)amino)-1-oxopropan-2-yl acetate] | > 500 |
| CNC(=O)Nc1cc(NCc2c(C)cc(F)cc2C)c2nc(C)c(C)n2c1 [Example 44, 1-(8-((4-fluoro-2,6-dimethylbenzyl)amino)-2,3-dimethylimidazo[1,2-a]pyridin-6-yl)-3-methylurea hydrochloride] | < 50 |
| Cc1cccc(C)c1CNc1cc(NC(=O)C(C)C)cn2c(C)c(C)nc12 [Example 7, N-(8-((2,6-dimethylbenzyl)amino)-2,3-dimethylimidazo[1,2-a]pyridin-6-yl)isobutyramide] | 100 to 500 |
| COC(=O)CNC(=O)Nc1cc(NCc2c(C)cccc2C)c2nc(C)c(C)n2c1 [Example 46, hydrochloride] | 50 to 100 |
| CC(=O)NCCNC(=O)Nc1cc(NCc2c(C)cccc2C)c2nc(C)c(C)n2c1 [Example 73, N-(2-(3-(8-((2,6-dimethylbenzyl)amino)-2,3-dimethylimidazo[1,2-a]pyridin-6-yl)ureido)ethyl)acetamide] | 100 to 500 |
| Cc1cccc(C)c1CNc1cc(NC(=O)N2CCCC2)cn2c(C)c(C)nc12 [Example 11, N-(8-((2,6-dimethylbenzyl)amino)-2,3-dimethylimidazo[1,2-a]pyridin-6-yl)pyrrolidine-1-carboxamide] | 100 to 500 |
| Cc1cccc(C)c1CNc1cc(Br)cn2c(C)c(C)nc12 [Comparative Example 1, reference compound] | 100 to 500 |
| Cc1cc(F)cc(C)c1CNc1cc(N)cn2c(C)c(C)nc12 [Preliminary Example 2, N^8-(4-fluoro-2,6-dimethylbenzyl)-2,3-dimethylimidazo[1,2-a]pyridine-6,8-diamine hydrochloride] | 50 to 100 |
| Cc1cccc(C)c1CNc1cc(NC(=O)[C@H]2CNCCN2)cn2c(C)c(C)nc12 [Example 85, (R)-N-(8-((2,6-dimethylbenzyl)amino)-2,3-dimethylimidazo[1,2-a]pyridin-6-yl)piperazine-2-carboxamide hydrochloride] | 100 to 500 |
| CCOC(=O)CCC(=O)Nc1cc(NCc2c(C)cccc2C)c2nc(C)c(C)n2c1 [Example 40, ethyl 4-((8-((2,6-dimethylbenzyl)amino)-2,3-dimethylimidazo[1,2-a]pyridin-6-yl)amino)-4-oxobutanoate] | 100 to 500 |

Now from value to compound:

| IC50 [nM] | SMILES |
| --- | --- |
| 50 to 100 | Cc1cccc(C)c1CNc1cc(NC(=O)NCC(=O)N(C)C)cn2c(C)c(C)nc12 [Example 48, 2-(3-(8-((2,6-dimethylbenzyl)amino)-2,3-dimethylimidazo[1,2-a]pyridin-6-yl)ureido)-N,N-dimethylacetamide hydrochloride] |
| 50 to 100 | Cc1cccc(C)c1CNc1cc(NC(=O)NC2CCC2)cn2c(C)c(C)nc12 [Example 23, 1-cyclobutyl-3-(8-((2,6-dimethylbenzyl)amino)-2,3-dimethylimidazo[1,2-a]pyridin-6-yl)urea hydrochloride] |
| 100 to 500 | Cc1cccc(C)c1CNc1cc(NC(=O)N2CCCC(c3ccccc3)C2)cn2c(C)c(C)nc12 (centres unmarked) [Example 83, N-(8-((2,6-dimethylbenzyll)amino)-2,3-dimethylimidazo[1,2-a]pyridin-6-yl)-3-phenylpiperidine-1-carboxamide] |
| > 500 | COC(=O)c1cc(NCc2c(C)cccc2C)c2nc(C)c(C)n2c1 [Comparative Example 2, reference compound] |
| 50 to 100 | Cc1cccc(C)c1CNc1cc(NC(=O)C[C@H]2CCCN2)cn2c(C)c(C)nc12 [Example 91, (R)-N-(8-((2,6-dimethylbenzyl)amino)-2,3-dimethylimidazo[1,2-a]pyridin-6-yl)-2-(pyrrolidin-2-yl)acetamide hydrochloride] |
| 50 to 100 | Cc1cccc(C)c1CNc1cc(NC(=O)C(C)(C)N)cn2c(C)c(C)nc12 [Example 27, 2-amino-N-(8-((2,6-dimethylbenzyl)amino)-2,3-dimethylimidazo[1,2-a]pyridin-6-yl)-2-methylpropanamide hydrochloride] |
| 50 to 100 | Cc1cc(F)cc(C)c1CNc1cc(NC(=O)[C@H](C)N)cn2c(C)c(C)nc12 [Example 63, (S)-2-amino-N-(8-((4-fluoro-2,6-dimethylbenzyl)amino)-2,3-dimethylimidazo[1,2-a]pyridin-6-yl)propanamide hydrochloride] |
| 50 to 100 | CCN(C)C(=O)Nc1cc(NCc2c(C)cccc2C)c2nc(C)c(C)n2c1 [Example 32, 3-(8-((2,6-dimethylbenzyl)amino)-2,3-dimethylimidazo[1,2-a]pyridin-6-yl)-1-ethyl-1-methylurea hydrochloride] |
| 100 to 500 | Cc1cccc(C)c1CNc1cc(NC(=O)N2CCC(c3ccccc3)CC2)cn2c(C)c(C)nc12 [Example 82, N-(8-((2,6-dimethylbenzyl)amino)-2,3-dimethylimidazo[1,2-a]pyridin-6-yl)-4-phenylpiperidine-1-carboxamide] |
| 50 to 100 | Cc1cccc(C)c1CNc1cc(NC(=O)NCCN)cn2c(C)c(C)nc12 [Example 37, 1-(2-aminoethyl)-3-(8-((2,6-dimethylbenzyl)amino)-2,3-dimethylimidazo[1,2-a]pyridin-6-yl)urea hydrochloride] |

same assay, conditions: result in words

| inhibitory activity against proton pump activity | SMILES |
| --- | --- |
| weak inhibitory activity | COC(=O)c1cc(NCc2c(C)cccc2C)c2nc(C)c(C)n2c1 [Comparative Example 2, reference compound] |
| weak inhibitory activity | Cc1cccc(C)c1CNc1cc(Br)cn2c(C)c(C)nc12 [Comparative Example 1, reference compound] |
